Like-named read-outs stand apart in the source and are kept apart here.

Results on 5 compounds are retold here after publication PMC12844237, “A Novel Quinolone JH62 (E-2-(Tridec-4-en-1-yl)-quinolin-4(1H)-one) from Pseudomonas aeruginosa Exhibits Potent Anticancer Activity” (Microorganisms, 2025).

Data set [1] deals with A549 cells. The settings on record: cited from earlier work.
Data set [2] deals with MEF: murine embryonic fibroblast. Description: WST-1 cell viability, MEF. It is filed as cell-based. The settings on record: Mus musculus, non-cancer cell line. From the text:
(§1) Different cells were utilized as follows: MEF: murine embryonic fibroblast (RRID: CVCL_L690); AML12: mouse liver cell lines (RRID: CVCL_0140); WI-38: human lung fibroblast cell lines (RRID: CVCL_0579); THLE-2: human liver epithelial cell lines (RRID: CVCL_3803); A549: human lung cancer cell lines (RRID: CVCL_0023); HEPG2: human liver cancer cell lines (RRID: CVCL_0027); HEP3B: human hepatoma cell lines (RRID: CVCL_0326); BxPC3: human pancreatic cancer cell lines (RRID: CVCL_0186); U87: human primary glioblastoma cell lines (RRID: CVCL_0022); DU145: human prostate cancer cell lines (RRID: CVCL_0105); MCF7: human breast cancer cell lines (RRID: CVCL_0031); HeLa: human cervical cancer cell lines (RRID: CVCL_0030); HCT116: human colon cancer cell lines (RRID: CVCL_0291). Cells were maintained in Dulbecco’s modified Eagle’s medium (DMEM, Gibco) supplemented with L-glutamine (Lonza) (2 mM), 10% fetal bovine serum (FBS, Hyclone), 1 × non-essential amino acids, and sodium pyruvate (1 mM). THLE-2 cells were maintained in THLE-2 Cell Complete Medium (Zhong Qiao Xin Zhou, Shanghai, China). Cells were incubated at 37 °C in a humidified incubator with 5% CO2. […]
(§2) Cell viability was assessed using the WST-1 assay, based on a previously reported method with slight modifications. […] Absorbance at OD450 was measured using a microplate reader (Synergy H1; BioTek Instruments, Winooski, VT, USA).

In data set [3] the test system is AML12: mouse liver cell lines. The data set is described as follows: WST-1 cell viability, AML12. As to conditions: AML12, non-cancer cell line. The data set is classed as cell-based.
Excerpt: as §1, §2

Data set [4] deals with WI-38: human lung fibroblast cell lines. The data set is described as follows: WST-1 cell viability, WI-38. It is filed as cell-based. As to conditions: WI-38, non-cancer cell line.
Excerpt: as §1, §2

The subject of data set [5] is THLE-2: human liver epithelial cell lines. Description: WST-1 cell viability, THLE-2. The settings on record: THLE-2, non-cancer cell line. The data set is classed as cell-based.
Excerpt: as §1, §2

Data set [6] has as its system HEPG2: human liver cancer cell lines. The data set is described as follows: WST-1 cell viability, HEPG2. It is filed as cell-based. As to conditions: HEPG2 (liver) cancer cell line.
Excerpt: as §1, §2

The test system of data set [7] is HEP3B: human hepatoma cell lines. Description: WST-1 cell viability, HEP3B. It is filed as cell-based. As to conditions: HEP3B (liver) cancer cell line.
Excerpt: as §1, §2

The subject of data set [8] is BxPC3: human pancreatic cancer cell lines. The data set is described as follows: WST-1 cell viability, BxPC3. It is filed as cell-based. The settings on record: BXPC-3, BxPC3 (pancreatic) cancer cell line.
Excerpt: as §1, §2

Data set [9] relates to U87: human primary glioblastoma cell lines. Description: WST-1 cell viability, U87. It is filed as cell-based. The settings on record: U87 (glioblastoma) cancer cell line.
Excerpt: as §1, §2

Data set [10] relates to DU145: human prostate cancer cell lines. The data set is described as follows: WST-1 cell viability, DU145. It is filed as cell-based. As to conditions: DU-145, DU145 (prostate) cancer cell line.
Excerpt: as §1, §2

In data set [11] the test system is A549: human lung cancer cell lines. Description: WST-1 cell viability, A549. As to conditions: Homo sapiens, A549, A549 (lung) cancer cell line, WST-1. It is filed as cell-based. From the text: Different cells were utilized as follows: MEF: murine embryonic fibroblast (RRID: CVCL_L690); AML12: mouse liver cell lines (RRID: CVCL_0140); WI-38: human lung fibroblast cell lines (RRID: CVCL_0579); THLE-2: human liver epithelial cell lines (RRID: CVCL_3803); A549: human lung cancer cell lines (RRID: CVCL_0023); HEPG2: human liver cancer cell lines (RRID: CVCL_0027); HEP3B: human hepatoma cell lines (RRID: CVCL_0326); BxPC3: human pancreatic cancer cell lines (RRID: CVCL_0186); U87: human primary glioblastoma cell lines (RRID: CVCL_0022); DU145: human prostate cancer cell lines (RRID: CVCL_0105); MCF7: human breast cancer cell lines (RRID: CVCL_0031); HeLa: human cervical cancer cell lines (RRID: CVCL_0030); HCT116: human colon cancer cell lines (RRID: CVCL_0291). Cells were maintained in Dulbecco’s modified Eagle’s medium (DMEM, Gibco) supplemented with L-glutamine (Lonza) (2 mM), 10% fetal bovine serum (FBS, Hyclone), 1 × non-essential amino acids, and sodium pyruvate (1 mM). THLE-2 cells were maintained in THLE-2 Cell Complete Medium (Zhong Qiao Xin Zhou, Shanghai, China). Cells were incubated at 37 °C in a humidified incubator with 5% CO2. A549 cells were previously stored in the lab and other cell lines were a gift from Haishan Wang’s lab (Institute of Molecular and Cell Biology, Singapore). All cell lines were confirmed to be contamination-free.
(§3) Cell viability was assessed using the WST-1 assay, based on a previously reported method with slight modifications. Briefly, cells were seeded at 1 × 10^4 cells per well in 96-well plates and then treated with different doses of JH62 or DOX for 0–72 h. The cells used included non-cancer cells (MEF, AML12, WI-38, and THLE-2) and cancer cells (A549, HEPG2, HEP3B, BxPC3, U87, DU145, MCF7, HeLa, and HCT116). The WST-1 reagent (Roche, Shanghai, China) was added to each well (10% vol/vol final concentration), followed by incubation for 3 h at 37 °C. Absorbance at OD450 was measured using a microplate reader (Synergy H1; BioTek Instruments, Winooski, VT, USA).

Data set [12] concerns MCF7: human breast cancer cell lines. The data set is described as follows: WST-1 cell viability, MCF7. The settings on record: MCF7 (breast) cancer cell line. The data set is classed as cell-based.
Excerpt: as §1, §2

For data set [13], the system named is HeLa: human cervical cancer cell lines. The data set is described as follows: WST-1 cell viability, HeLa. As to conditions: HeLa (cervical) cancer cell line. The data set is classed as cell-based.
Excerpt: as §1, §2

For data set [14], the system named is HCT116: human colon cancer cell lines. Description: WST-1 cell viability, HCT116. The data set is classed as cell-based. As to conditions: HCT-116, HCT116 (colon) cancer cell line.
Excerpt: as §1, §2

The test system of data set [15] is A549 cells. The data set is described as follows: Chromosome staining experiment. It is filed as cell-based, human. As to conditions: A549, 5 μM DOX or 25 μM JH62 for 6 h. The procedure:
Metaphase chromosome spreads were prepared from A549 cells. Briefly, A549 cells were cultured. After treatment with JH62 or DOX, cells were incubated with Colcemid (Gibco BRL; 0.2 μg/mL final concentration) for 2 h to arrest cells in metaphase. Cells were then subjected to hypotonic treatment in KCl (0.075 M) at 37 °C for 5 min, and fixed by repeated washing with ice-cold freshly prepared 3:1 (vol/vol) methanol:acetic acid. Chromosome spreads were prepared on premarked glass slides using the “drop-cryo” protocol. The chromosome suspension was dropped onto a slide. This was followed by adding three drops of 45% acetic acid and placing a coverslip over the suspension. The slide was then inverted and placed on dry ice for 15 min. The spreads were postfixed in 2.5% glutaraldehyde in cacodylate buffer (pH 7.4, 75 mM) for 15 min and washed with cacodylate buffer (0.1 M). The chromosomes were stained with Vista Green DNA dye (Cell Biolabs, Singapore). After staining, the preparations were washed in water for 5, 10, and 15 min, then dehydrated using a series of ethanol solutions as follows: 5 min in a 70% solution, 10 min in an 85% solution, and 15 min in 100% ethanol. Finally, slides were mounted with a permanent mounting medium, sealed, and analyzed by microscopy.

In data set [16] the test system is A549 cells. The data set is described as follows: DNA fragmentation analysis (genomic DNA electrophoresis). As to conditions: A549, 24 h; JH62 5–100 µM, DOX 1 and 5 μM. The data set is classed as cell-based, human. The procedure: Genomic DNA fragmentation was analyzed by agarose gel electrophoresis using previously described methods. A549 cells were seeded in 6 cm tissue culture dishes and cultured overnight. Before treatment with JH62 or DOX, the cells were cultured in DMEM lacking FBS for 16 h. After treatment, the cells were then washed three times with PBS and genomic DNA was extracted using a MasterPure™ DNA Purification Kit (Lucigen Corporation, Middleton, WI, USA). The DNA pellet was airdried and resuspended in Tris-HCl (pH 8.0, 10 mM). DNA samples (2.5 μg) were separated by 1% agarose gel electrophoresis in TAE buffer containing ethidium bromide.

For data set [17], the system named is A549 cells. Description: Comet assay. As to conditions: A549, 1, 8, and 12 h. The data set is classed as cell-based, human. The procedure: Residual DNA damage was detected by alkaline single cell gel electrophoresis (Comet Assay) using the Trevigen Comet Assay Kit (Trevigen, Gaithersburg, MD, USA) following the manufacturer’s protocol with slight modifications. […] The treated cells were trypsinized and pelleted by centrifugation. The cell pellets were washed and resuspended in 2 mL of ice-cold PBS. The cell suspension was mixed 1:10 (vol/vol) with low-melting point agar at 42 °C and immediately pipetted onto a CometSlide™. Slides were incubated at 4 °C in the dark for 30 min, immersed in chilled lysis solution and incubated again at 4 °C for 30 min. Slides were placed in a horizontal electrophoresis chamber and electrophoresed with buffer NaOH (0.3 M) and EDTA (1 mM) at 1 V/cm for 15 min. Samples were dried and stained with Vista Green DNA dye (Cell Biolabs, Singapore). Comet tails were imaged using a model DM 2500 fluorescent microscope (Leica, Wetzlar, Germany) and quantified by Komet 5.5 software (Andor Technology, Belfast, UK). A minimum of 50 cells were scored per treatment. All experiments were performed independently in triplicate.

Data set [18] relates to non-cancer cells (MEF, AML12, WI-38, and THLE-2). The data set is described as follows: WST-1 cell viability, panel of non-cancer cells. The data set is classed as cell-based. The settings on record: across non-cancer cells (MEF, AML12, WI-38, and THLE-2). As to the method:
as §3

The test system of a further data set is cancer cell lines. The data set is described as follows: WST-1 cell viability, panel of cancer cell lines. It is filed as cell-based. The settings on record: Homo sapiens; across the tested cancer cell lines. As to the method: as §3
Data set [19] has as its system both non-cancer and cancer cells. Description: WST-1 cell viability, non-cancer and cancer cells together. The data set is classed as cell-based. The settings on record: against both non-cancer and cancer cells.
Description: Cell viability was assessed using the WST-1 assay, based on a previously reported method with slight modifications [54]. […] The cells used included non-cancer cells (MEF, AML12, WI-38, and THLE-2) and cancer cells (A549, HEPG2, HEP3B, BxPC3, U87, DU145, MCF7, HeLa, and HCT116). The WST-1 reagent (Roche, Shanghai, China) was added to each well (10% vol/vol final concentration), followed by incubation for 3 h at 37 °C. Absorbance at OD450 was measured using a microplate reader (Synergy H1; BioTek Instruments, Winooski, VT, USA).
The subject of another data set is HeLa. Details: method as in PMID 8823519. As to conditions: HeLa ref 87; cited from earlier work.
The conditions of data set [20]: clinically successful drugs; cited from earlier work.

On to `Oc1cccc2cccnc12` [8-hydroxyquinoline], for which, in the data set with A549 cells [1] (A549 ref 85), the IC50 is 26000 nM.
Consider `COc1cccc2c1C(=O)c1c(O)c3c(c(O)c1C2=O)C[C@@](O)(C(=O)CO)C[C@@H]3O[C@H]1C[C@H](N)[C@H](O)[C@H](C)O1` [DOX, Doxorubicin, reference compound], for which the IC50 came out at 3900 ± 400 nM in [2]; 5100 ± 1300 nM in [3]; 1900 ± 300 nM in data set [4]; 1200 ± 100 nM in [5]; 800 ± 100 nM in data set [6]; 3300 ± 200 nM in [7]. Besides, the IC50 came out at 1900 ± 100 nM in data set [8]; 1400 ± 1000 nM in [9]; 1900 ± 200 nM in [10]; 2100 ± 500 nM in data set [11]; 1200 ± 500 nM in [12]; 700 ± 700 nM in data set [13]. In addition, the IC50 is 3900 ± 700 nM in [14], 1200 to 5100 nM in data set [18], 700 to 3900 nM in the data set on cancer cell lines and 500 to 5000 nM in data set [19]. The chromosome morphology entry with A549 cells [15] is “fragmented and adhered together”. The “genomic DNA integrity (electrophoresis)” value in the data set on A549 cells [16] is reported as “obvious DNA fragmentation”. In addition, in the data set with A549 cells [17], the comet tail analysis result is “distinct and typical comet tail”.
As for `CCCCCC/C=C/Cc1c(C)c(=O)c2ccccc2n1O` [E-1-hydroxy-2-(non-2-enyl)-3-methyl-4-quinolone], the IC50 in the data set with HeLa is 1900 nM.
Regarding `CCCCCCCc1[nH]c2ccccc2c(=O)c1O` [PQS, 2-heptyl-3-hydroxy-4(1H)-quinolone], the half-maximal inhibitory concentration (IC50) in the data set on A549 cells [1] (A549 cells ref 82,83) is 19000 nM.
As to `O=C1NC(=O)C(c2ccccc2)(c2ccccc2)N1` [phenytoin], the PPB entry in [20] is reported as “exceeding 98%”.
